Test results as given in US9585854B2, “N-acetyl-L-cysteine for use in in vitro fertilization” (IASOMAI AB, priority 2012, dated 2017).
Read-outs that look alike come from different tables or passages of the source. Where a SMILES comes first, the peptide text is derived from it. Bridges are numbered along the chain shown (N, C = ends). [ ]: non-standard residue; d: D form. Orn = NCCC[C@H](N)C(=O)O; Mpa = O=C(O)CCS

Assays:
[1] = test system: pregnancy rates after IVF-ET; settings: cited from earlier work
[2] = test system: oxytocin antagonist; implantation after IVF; settings: cited from earlier work
embryo implantation = embryo implantation in oxytocin-treated mice; assay type: in vivo; settings: mice given oxytocin
Text: Indeed, in mice, NAC was confirmed to support embryo implantation. In the animal model, embryo implantation rate was decreased when the mice were given oxytocin.
In mice, NAC was confirmed to support embryo implantation. In the animal model, embryo implantation rate was decreased when the mice were given oxytocin.

[3] = test system: RGD recognition sites on integrins; settings: cited from earlier work
[4] = test system: Isolated uteri from virgin Wistar rats; assay: isolated organ bath study of uterine contractions; design: species or system rat
Protocol: Animals were kept at 22° C., housed 3 per cage and fed ad libitum. Isolated uteri from virgin Wistar rats (200-280 g) in estrous, which was determined by examination of a daily vaginal smear, were used.
Protamine sulphate (PS) and NAC were dissolved in pure water.
All rats were sacrificed by cervical dislocation. The uterine horns were excised, carefully cleaned and mounted vertically in a 10 ml volume organ bath containing De Jalon's solution (NaCl 154 mM, KCl 5.6 mM, CaCl2×2H2O 0.41 mM, NaHCO 2 5.9 mM and glucose 2.8 mM), under 1 g tension, aerated with 95% oxygen and 5% carbon dioxide at 37° C. […] After 10 min increasing concentrations of PS were added until the total cessation of contractions was observed.
Myometrial tension was recorded isometrically with an organ bath and transducer.
Effects of treatments on uterine contractions were calculated as percentages for control, untreated and contracting conditions. Each data value is expressed as the mean±SEM. differences between groups were analyzed by two-way ANOVA. EC50 values were compared using one-way ANOVA

CC(=O)[C@H]1CC[C@H]2[C@@H]3CCC4=CC(=O)CC[C@]4(C)[C@H]3CC[C@]12C [Progesterone]
effect on pregnancy rates [1]: no benefit

CCOc1ccc(C[C@H]2NC(=O)CCSSC[C@@H](C(=O)N3CCC[C@H]3C(=O)N[C@@H](CCCN)C(=O)NCC(N)=O)NC(=O)[C@H](CC(N)=O)NC(=O)[C@H]([C@@H](C)O)NC(=O)[C@H]([C@@H](C)CC)NC2=O)cc1 [atosiban] ([Mpa][dY](Et)ITNCP[Orn]G-NH2; disulfide 1-6)
Implantation rates per embryo transferred ([2]; total i.v. dose 37.5 mg before and up to 2 h after embryo transfer, placebo 12.6%): 20.4%
early miscarriages ([2]; total i.v. dose 37.5 mg, placebo 24.4%): 16.7%
clinical pregnancy rates per cycle ([2]; total i.v. dose 37.5 mg, placebo 28.9%): 46.7%

CC[C@H](C)[C@@H]1NC(=O)[C@H](Cc2ccc(O)cc2)NC(=O)[C@@H](N)CSSC[C@@H](C(=O)N2CCC[C@H]2C(=O)N[C@@H](CC(C)C)C(=O)NCC(N)=O)NC(=O)[C@H](CC(N)=O)NC(=O)[C@H](CCC(N)=O)NC1=O [oxytocin]
embryo implantation rate (embryo implantation): decreased

CN1C(C(=O)Nc2ccccn2)=C(O)c2ccccc2S1(=O)=O [piroxicam]
effect on pregnancy rates [1]: positive effect

CC(NCCc1ccc(O)cc1)C(O)c1ccc(O)cc1 (stereo not drawn) [ritodrine]
effect on pregnancy rates [1]: positive effect

Arg-Gly-Asp (RGD) peptide [RGD peptide]
rat blastocyst attachment to Ishikawa cells ([3]; either the blastocysts or the Ishikawa cells pre-incubated): significant reduction in blastocyst attachment
rat blastocyst attachment to Ishikawa cells ([3]; pre-treatment of both blastocysts and Ishikawa cells): inhibited blastocyst attachment, but not completely

Protamine sulphate [PS]
relaxation of uterine contractions ([4]; calcium ion-induced uterine contractions): dose-dependent relaxation
relaxation of uterine contractions ([4]; spontaneously active uteri): dose-dependent relaxation
EC50 for PS-treated uteri ([4]; spontaneously active vs calcium ion-induced uteri): lower in spontaneously active uteri than in calcium ion-induced uteri
